Data taken from US11617708B2, “Cosmetic composition capable of strengthening epidermal tight junctions for the prevention and/or treatment of atopic dermatitis” (NAOS INSTITUTE OF LIFE SCIENCE, priority 2020, dated 2023).

Tested on: claudin-1
Assay: Expression of claudin-1 by in situ immunolabelling in an in vitro cell model of atopic dermatitis (calcium-differentiated keratinocytes inhibited by alarmins)
Format: cell-based, human
Experimental: • cell type: normal human epidermal keratinocytes (NHEK; reference: Bioalternatives K34 1), used at 3rd passage—culture conditions: 37° C., 5% CO2 • culture medium: Keratinocyte-SFM complemented with Epidermal Growth Factor (or EGF) at a concentration of 0.25 ng/mL, pituitary extract (PE) at a concentration of 25 μg/mL and gentamycin at a concentration of 25 μg/mL • assay medium used for this example: Keratinocyte-SFM complemented with gentamycin at a concentration of 25 μg/mL. […]
For each condition, the analysis was carried out from 30 image quantifications (n=30) except for the control conditions produced from 60 image quantifications (n=60). A first evaluation of the results was carried out by taking all of the quantifications into account, then a second solely with the results with replicated cultures, i.e. with 3 replications (n=3), except for the control conditions which were carried out with 6 replications (n=6). […]
Labelling was quantified by measuring the intensity of fluorescence of the proteins with respect to the total number of cells identified by staining with bis-benzimide (integration of digital data by the Developer Toolbox 1.5 software, GE Health Care).
The intergroup comparisons were carried out with the aid of the bilateral unpaired Student t-assay. […] However, for n<5, the calculated data were provided by way of indication only. […]

Row | SMILES | expression of claudin-1 after differentiation with CaCl2 (NHEK, CaCl2 0.75 mM, without alarmins, versus not stimulated/not differentiated control) | effect on the expression of claudin-1 (% with respect to T+, inhibited control = 100%) (NHEK differentiated with CaCl2 0.75 mM, compounds 1 h before alarmins (histamine 50 μM, IL-33 100 ng/mL, IL-1β 100 ng/mL), 72 h, arginine 0.02-0.2%, glycosylceramides 0.0003-0.003%, FIG. 1)
1 | [Ca+2].[Cl-].[Cl-] [CaCl2] | induced an increase in the expression of the analysed tight junctions protein (claudin-1) | 
2 | N=C(N)NCCC[C@H](N)C(=O)O [arginine] |  | significantly reversed the inhibiting effect of the mixture of alarmins on the expression of claudin-1
